Laboratory results taken from paper PMC10250256, “A radiohybrid theranostics ligand labeled with fluorine-18 and lutetium-177 for fibroblast activation protein-targeted imaging and radionuclide therapy” (European Journal of Nuclear Medicine and Molecular Imaging, 2023).

Experiments:
HT-1080-FAP xenograft = assay: SPECT imaging, HT-1080-FAP xenograft; format: in vivo, BALB/C-nu/nu mice; conditions: about 37 MBq i.v.
Description: (§1) All animal experiments were conducted in compliance with a protocol approved by the First Affiliated Hospital of Sun Yat-sen University Institutional Animal Care and Use Committee. BALB/C-nu/nu mice (4–5-week old with body weight of 16–22 g) were purchased from GemPharmatech Co., Ltd. Mice were housed under standard conditions with temperature and light control (12-h-light/12-h-dark cycle) and had free access to water and food. For the tumor model, HT-1080-FAP or HT-1080 cells (5 × 10^6) were subcutaneously injected into the right or left flank of nude mice, respectively. As the tumor diameter reached 3–4 mm, mice were treated with radioligands. Micro-PET and SPECT imaging studies, as well as biodistribution, were conducted when the tumor diameter reached 5–10 mm.
The mice bearing HT-1080-FAP or HT-1080 xenografts were injected with about 37 MBq of [^177Lu]21 via the tail vein, and SPECT (Siemens, Symbia Intevo Bold, Germany) was performed at 2 h to 8 d after injection. The SPECT parameters were as follows: medium-energy collimator, energy peaks of 113 and 208 keV, matrix of 256 × 256, and scan duration of 10 min.

HT-1080-FAP xenografts = assay: radionuclide treatment of HT-1080-FAP xenografts; format: in vivo, BALB/C-nu/nu mice
Description: as §1
Radionuclide therapy was performed when the diameter of HT-1080-FAP xenografts reached 3–4 mm. The mice were randomly divided into 4 groups (n = 4) and intravenously injected with [^177Lu]21 (24.05 MBq), [^177Lu]21 (9.25 MBq), [^177Lu]Lu-FAPI-04 (24.05 MBq) and saline, respectively. Tumor volume (volume = length × width^2/2) and mouse weight were measured every 2–3 d. Endpoint criteria were defined as weight loss of more than 15%, tumor volume greater than 1500 mm^3, or active ulcerations of the tumor. […]

HT-1080 cells = assay: cell uptake in HT-1080 (FAP negative) cells; format: cell-based, human
Description: (§2) The human fibrosarcoma cell lines HT-1080 and HT-1080-FAP transferred with human FAP gene were both cultured in Dulbecco modified Eagle medium supplemented with 10% fetal bovine serum (Gibco, USA) at 37℃/5% carbon dioxide. For cell uptake experiments, HT-1080-FAP cells (~ 1 × 10^5/well) or HT-1080 (~ 1 × 10^5/well) were seeded in 24-well plates for 24–48 h and incubated at 37℃ with radiolabeled compounds (74 kBq/well) in 0.5 mL of serum-free medium for indicated times. Non-specific binding was determined by co-incubating with 100 μM FAP inhibitor UAMC1110. For competitive FAP binding assays, HT-1080-FAP cells were incubated with [^177Lu]Lu-FAPI-04 (74 kBq/well) in the presence of different concentrations (10^−3–10^4 nM) of competing non-radioactive ligands. For internalization experiments, the radiotracer-incubated cells were washed twice with PBS (pH 7.4), followed by glycine–HCl (0,05 M, pH = 2.8) solution to distinguish between cell surface–bound (acid-releasable) and internalized (acid-resistant) radioligand. For efflux experiments, cells were preincubated with [^177Lu]21 or [^177Lu]Lu-FAPI-04 for 1 h and subsequently incubated at 37 °C in a medium free of radiotracer and serum for different time periods. […] Cell lysates were collected and the radioactivity was determined using a γ-counter.

[1] = in vivo stability in ICR mice, blood samples (radio-HPLC)
Description: [^18F]21 or [^177Lu]21 (50 μCi, 10 μL) was added to PBS (90 μL) or murine serum (90 μL) and the mixture was incubated at 37 °C for a certain time ([^18F]21: 2 h, [^177Lu]21: 8 d). The PBS mixture was injected directly into the radio-HPLC for analysis. The murine serum was precipitated with 0.1 mL of acetonitrile and centrifuged (10,000 rpm, 5 min). The supernatant was measured and analyzed by the radio-HPLC to determine the stability. For in vivo stability study, the radio tracers were injected into the tail vein of ICR mice and samples of blood were collected after a certain time post injection (pi) ([^18F]21: 4 h, [^177Lu]21: 9 h). The plasma proteins were precipitated using an equal volume of acetonitrile and centrifuged (10,000 rpm, 5 min). The RCP of radio tracer in supernatants were analyzed and quantified by radio-HPLC. The radio-HPLC method was as follows: A: 0.1% TFA in H2O, B: ACN, 0–10 min, 0–100% B. The flow rate was 1 mL/min, and the C18 column (4.6 × 150 mm, 5 μm, ZORBAX, Agilent) was used. When using HPLC to assess the stability of [^177Lu]21, the effluent was collected every 30 s due to its less radioactivity, and samples were measured by an automatic γ-counter (2480 Wizard2, Perkin Elmer). The counted samples were plotted as intensity (cpm) against fraction.

HT-1080-FAP cells = assay: efflux experiments in HT-1080-FAP cells; format: cell-based, human; conditions: preincubated 1 h, up to 4 h
Description: as §2

## CC(C)(C)[Si](F)(c1ccc(C(=O)NCC(NC(=O)CCC(C(=O)O)N2CCN(CC(=O)[O-])CCN(CC(=O)[O-])CCN(CC(=O)[O-])CC2)C(=O)NCC2CCC(C(=O)NCCCOc3ccc4nccc(C(=O)NCC(=O)N5CC(F)(F)CC5C#N)c4c3)CC2)cc1)C(C)(C)C.[177Lu+3] (centres unmarked) [[^177Lu]21]
HT-1080-FAP xenograft
  time pi up to which high accumulation was observed (SPECT): up to 144 h
  time up to which tumor uptake could be visualized (SPECT): up to 6 days
HT-1080-FAP xenografts; 9.25 MBq i.v.
  suppression of tumor growth versus control: no statistically significant difference in comparison to control
HT-1080-FAP xenografts; 24.05 MBq i.v., end of study
  average relative tumor volume: 4.55
HT-1080 cells
  cell uptake in FAP negative cells: Almost no uptakes
[1]; ICR mice, within 9 h pi
  metabolization in blood samples (radio-HPLC): little evidence of any metabolization
[1]; as summarised in discussion
  in vivo stability: > 90%
HT-1080-FAP cells
  efflux: slower excretion up to 4 h than [^177Lu]Lu-FAPI-04
